This is an account of results in US12152991B2, “Time-resolved laser-induced fluorescence spectroscopy systems and uses thereof” (Cedars-Sinai Medical Center, priority 2013, dated 2024).

This test concerns rabbit brain tissue. Kind of test: Continuous NADH fluorescence monitoring (TRLIFS) in ex-vivo brain tissue exposed to Rotenone. The note with it: FIG. 6. Format: cell-based. The source says:
In order to excite the tissue, a Q-switched Nd:YaG laser emitting at a wavelength of 350 nm was used, running at 1 KHz with a pulse width (FWHM) of 400 ps (Teem Photonics PNVM02510). […] The excitation light was delivered to the tissue using a custom made trifurcated optical probe. The probe consisted of a central 600 micron fiber for delivering the excitation light surrounded by twelve 200 micron fibers to collect the fluorescence (FIG. 3). Every other fiber from the twelve collection fibers were bundled together forming two channels. One collection channel/bundle connected to a spectrometer (Ocean Optics, Maya), which measured the fluorescence spectrum every 100 ms and the other channel/bundle connected to a beam splitter (demultiplexer). The beam splitter at 452 nm of wavelength separated the significant free and bound fluorescence, which was recorded both by MCP-PMT and spectrometer.
Rabbit brain was removed after sacrificing the animal in the OR and transported in cold oxygen rich Kreb-ringer solution to the laboratory. […] A baseline NADH (bound and free) was recorded till the fluorescence from the tissue equilibrated and plateaued. After approximately 30 mins, a measured dose of 50 nM rotenone, which blocks the binding of NADH to […] in the mitochondrion, was added. […]
The effect of various concentrations of Rotenone on the rabbit brain tissue was recorded (FIG. 6). […]

Regarding `C=C(C)[C@H]1Cc2c(ccc3c2O[C@@H]2COc4cc(OC)c(OC)cc4[C@@H]2C3=O)O1` [Rotenone], for the setting “ex-vivo rabbit brain cortex in Kreb-Ringer solution, 95% O2/5% CO2, 50 nM Rotenone added, excitation 350 nm”, the “NADH level (fluorescence, free and bound)” value was “increase in NADH level”. Further, the NADH fluorescence result (ex-vivo rabbit brain cortex, increasing concentrations of Rotenone added every 10 mins) is reported as “NADH fluorescence increased”.
